Results published in US10633394B2, “Heterocyclic derivatives and use thereof” (C & C RESEARCH LABORATORIES, priority 2014, dated 2020).

What was measured:
Format in all cases: cell-based
NCI-N87 = experiment: Cell growth inhibition assay (CellTiter-Glo), stomach cancer cell line NCI-N87; details: Homo sapiens; NCI-N87 cells, 96 hours
Method: (§1) The inhibitory effects of the compounds of the present invention against the growth of cancer cells were evaluated as shown below. The cancer cell lines including stomach cancer cell line (NCI-N87) and breast cancer cell line (MDA-MB-468) were cultured under the protocol provided by each supplier. Each type of cells to be used in experiments was sub-cultured in a 96-well plate by counting the exact number of cells using Tali™ Image-based Cytometer (Life Technologies). In a 96-well plate, NCI-N87 was employed with 5,000 cells/well; and MDA-MB-468 was employed with 10,000 cells/well. The cells were treated with the compounds listed in Examples which were diluted in various concentrations. Upon completion of the compounds treatment, NCI-N87 cells were cultured at 37° C. under 5% CO2 for 96 hours, and MDA-MB-468 cells were cultured at 37° C. in air for 96 hours. Subsequently, the cells were observed under microscope and drug precipitation and particular findings were investigated and recorded. And then, the 96-well plate was placed at room temperature for 30 minutes, added with 20 μL/well of CellTiter-Glo solution (Cat No. G7573, Promega) and shaken for 10 minutes, followed by being subjected to the measurement using PHERAstar™ microplate reader (BMG LABTECH) according to the supplier's general luminometer protocol. Wells where only culture liquid added without cell plating were used as a negative control, whereas wells where culture liquid containing 0.1% DMSO instead of the compounds listed in Examples were used as a positive control.

MDA-MB-468 = experiment: Cell growth inhibition assay (CellTiter-Glo), breast cancer cell line MDA-MB-468; details: Homo sapiens; MDA-MB-468 cells, 96 hours
Method: as §1

STAT3 = biological target: T1, STAT3 (Homo sapiens, UniProt P40763); experiment: STAT3 reporter gene (luciferase) assay in LNCaP stable cell line stimulated with IL-6; details: LNCaP stable cell line (pSTAT3-TA-luc), IL-6 10 ng/mL, 24 hours
T1 construct: plasmid pSTAT3-TA-luc), which contains a stably operating STAT3 promoter; endogenous in cells
Method: 1-1) Experiment on the Inhibition of STAT3 Activity
A human prostate cancer cell line (LNCaP stable cell line; plasmid pSTAT3-TA-luc), which contains a stably operating STAT3 promoter, was cultured in RPMI1640 medium (Cat No. 11875, Life Technologies) containing 10% fetal bovine serum (FBS) (Cat No. SH30396, Thermo Scientific) and 150 μg/mL G-418 solution (Cat No. 04 727 894 001, Roche). The reporter gene assay using LNCaP stable cell line was performed in RPMI1640 medium containing 3% DCC-FBS without G-418 solution. LNCaP stable cells were plated in two (2) white 96-well plates with 30,000 cells/50 μL in each well. The cells were cultured at 37° C., under 5% CO2 for 24 hours, and then treated with the compounds listed in Examples which were diluted in various concentrations. Subsequently, IL-6 was added to each well with a final concentration of 10 ng/mL. Upon completion of the treatment with the compounds and IL-6, the cells were cultured at 37° C., under 5% CO2 for 24 hours. The plates were observed under microscope and drug precipitation and particular findings were investigated and recorded.
The luciferase assay and the cell viability assay were performed respectively with one of the two plates. For the luciferase assay, the liquid media in the 96-well plate was removed, and then, 20 μL of passive cell lysis buffer was added to each well. After shaking the plate for 30 minutes, luciferase activities of each well were measured in a PHERAstar™ microplate reader (BMG LABTECH) using a luciferase assay system (Cat No. E1501, Promega). For the cell viability assay, the 96-well plate was placed at room temperature for 30 minutes, added with 20 μL/well of CellTiter-Glo solution (Cat No. G7573, Promega), and shaken for 10 minutes in order to measure cytotoxicity caused by the compounds listed in Examples with a PHERAstar™ microplate reader (BMG LABTECH). Wells without 0.1% DMSO and stimulation were used as a negative control and wells with 0.1% DMSO and stimulation were used as a positive control.
The results of evaluation on the inhibitory effect of the compounds listed in the Examples on the dimerization of STAT3 and STAT1 obtained via the STAT3 and STAT1 reporter gene assays are shown in Table 6 below.

T1 sequence (P40763 whole entry): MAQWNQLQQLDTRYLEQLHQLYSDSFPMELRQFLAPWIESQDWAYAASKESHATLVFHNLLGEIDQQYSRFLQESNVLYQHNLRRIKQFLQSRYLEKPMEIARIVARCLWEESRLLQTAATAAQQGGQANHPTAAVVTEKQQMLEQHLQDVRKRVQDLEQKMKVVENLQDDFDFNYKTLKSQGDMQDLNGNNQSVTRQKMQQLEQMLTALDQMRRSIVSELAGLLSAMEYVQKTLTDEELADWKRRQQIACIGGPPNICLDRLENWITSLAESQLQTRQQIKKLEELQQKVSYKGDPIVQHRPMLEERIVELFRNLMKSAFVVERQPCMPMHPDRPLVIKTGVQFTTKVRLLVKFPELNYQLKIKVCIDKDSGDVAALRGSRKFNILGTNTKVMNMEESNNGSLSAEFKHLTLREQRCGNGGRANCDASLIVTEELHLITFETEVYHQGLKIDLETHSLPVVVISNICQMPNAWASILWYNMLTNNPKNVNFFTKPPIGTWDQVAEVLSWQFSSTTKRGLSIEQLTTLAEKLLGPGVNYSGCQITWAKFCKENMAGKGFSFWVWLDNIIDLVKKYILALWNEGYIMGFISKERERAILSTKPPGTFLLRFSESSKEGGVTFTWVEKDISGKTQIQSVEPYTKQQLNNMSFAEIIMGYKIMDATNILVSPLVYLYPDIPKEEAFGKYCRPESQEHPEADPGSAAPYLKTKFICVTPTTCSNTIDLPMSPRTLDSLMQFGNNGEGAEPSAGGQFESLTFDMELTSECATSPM

Row | IC50 (NCI-N87) | IC50 (MDA-MB-468) | IC50 (STAT3) | SMILES
1 | 0.0056 µM | 0.0025 µM | 0.0039 µM | CS(=O)(=O)[C@@]1(F)CCOc2cc3sc(C(=O)Nc4cc(Cl)nc(Oc5ccc(Cl)cc5)c4)cc3cc21 [Example 45, (S)—N-(2-chloro-6-(4-chlorophenoxy)pyridin-4-yl)-4-fluoro-4-(methylsulfonyl)-3,4-dihydro-2H-thieno[3,2-g]chromene-7-carboxamide]
2 | 0.067 µM | 0.023 µM | 0.029 µM | CS(=O)(=O)C1CCCOc2cc3sc(C(=O)Nc4cc(Cl)nc(Oc5ccc(Cl)cc5)c4)cc3cc21 (stereo not drawn) [Example 9, N-(2-chloro-6-(4-chlorophenoxy)pyridin-4-yl)-5-(methylsulfonyl)-2,3,4,5-tetrahydrothieno[3′,2′:4,5]benzo[1,2-b]oxepine-8-carboxamide]
3 | 0.56 µM | > 0.1 µM | 0.14 µM | CS(=O)(=O)[C@]1(F)CCOc2cc3sc(C(=O)Nc4cc(Cl)nc(Oc5ccc(Cl)cc5)c4)cc3cc21 [Example 46, (R)—N-(2-chloro-6-(4-chlorophenoxy)pyridin-4-yl)-4-fluoro-4-(methylsulfonyl)-3,4-dihydro-2H-thieno[3,2-g]chromene-7-carboxamide]
4 | 4.4 µM | 0.71 µM | 5.2 µM | O=C(Nc1cc(Cl)nc(Oc2ccc(Cl)cc2)c1)c1cc2cc3c(cc2s1)OCCC3N1CCCC1=O (stereo not drawn) [Example 53, N-(2-chloro-6-(4-chlorophenoxy)pyridin-4-yl)-4-(2-oxopyrrolidin-1-yl)-3,4-dihydro-2H-thieno[3,2-g]chromene-7-carboxamide]
5 | 0.021 µM | 0.012 µM | 0.011 µM | Cc1cccc(Oc2cc(NC(=O)c3cc4cc5c(cc4s3)OCCC5S(C)(=O)=O)cc(Cl)n2)c1F (stereo not drawn) [Example 41, N-(2-chloro-6-(2-fluoro-3-methylphenoxy)pyridin-4-yl)-4-(methylsulfonyl)-3,4-dihydro-2H-thieno[3,2-g]chromene-7-carboxamide]
6 | 0.0056 µM | 0.0028 µM | 0.0063 µM | CS(=O)(=O)C1CCOc2cc3sc(C(=O)Nc4cc(Cl)nc(Oc5ccc(Cl)cc5F)c4)cc3cc21 (stereo not drawn) [Example 23, N-(2-chloro-6-(4-chloro-2-fluorophenoxy)pyridin-4-yl)-4-(methylsulfonyl)-3,4-dihydro-2H-thieno[3,2-g]chromene-7-carboxamide]
7 | 0.0094 µM | 0.0024 µM | 0.01 µM | Cc1cc(Oc2cc(NC(=O)c3cc4cc5c(cc4s3)OCCC5S(C)(=O)=O)cc(Cl)n2)ccc1Cl (stereo not drawn) [Example 20, N-(2-chloro-6-(4-chloro-3-methylphenoxy)pyridin-4-yl)-4-(methylsulfonyl)-3,4-dihydro-2H-thieno[3,2-g]chromene-7-carboxamide]
8 | 0.0072 µM | 0.0046 µM | 0.0073 µM | CS(=O)(=O)C1CCOc2cc3sc(C(=O)Nc4cc(Cl)nc(Oc5ccc(F)cc5)c4)cc3cc21 (stereo not drawn) [Example 26, N-(2-chloro-6-(4-fluorophenoxy)pyridin-4-yl)-4-(methylsulfonyl)-3,4-dihydro-2H-thieno[3,2-g]chromene-7-carboxamide]
9 | 0.018 µM | 0.0059 µM | 0.0066 µM | COc1cc(Cl)cc(Oc2cc(NC(=O)c3cc4cc5c(cc4s3)OCC[C@@H]5S(C)(=O)=O)cc(Cl)n2)c1 [Example 49, (S)—N-(2-chloro-6-(3-chloro-5-methoxyphenoxy)pyridin-4-yl)-4-(methylsulfonyl)-3,4-dihydro-2H-thieno[3,2-g]chromene-7-carboxamide]
10 | 0.0049 µM | 0.0029 µM | 0.0078 µM | CS(=O)(=O)C1CCOc2cc3sc(C(=O)Nc4cc(Cl)nc(Oc5ccc(F)c(Cl)c5)c4)cc3cc21 (stereo not drawn) [Example 27, N-(2-chloro-6-(3-chloro-4-fluorophenoxy)pyridin-4-yl)-4-(methylsulfonyl)-3,4-dihydro-2H-thieno[3,2-g]chromene-7-carboxamide]
11 | 0.4 µM | 0.12 µM | 0.1 µM | O=C(Nc1cc(Cl)nc(Oc2ccc(Cl)cc2)c1)c1cc2cc3c(cc2s1)OCCC3n1cccn1 (stereo not drawn) [Example 52, N-(2-chloro-6-(4-chlorophenoxy)pyridin-4-yl)-4-(1H-pyrazol-1-yl)-3,4-dihydro-2H-thieno[3,2-g]chromene-7-carboxamide]
12 | 0.071 µM | 0.017 µM | 0.03 µM | COc1ccc(Oc2cc(NC(=O)c3cc4cc5c(cc4s3)OCCC5S(C)(=O)=O)cc(Cl)n2)cc1 (stereo not drawn) [Example 22, N-(2-chloro-6-(4-methoxyphenoxy)pyridin-4-yl)-4-(methylsulfonyl)-3,4-dihydro-2H-thieno[3,2-g]chromene-7-carboxamide]
13 | 0.16 µM | 0.026 µM | 0.029 µM | CS(=O)(=O)C1CCC(F)(F)c2cc3sc(C(=O)Nc4cc(Cl)nc(Oc5ccc(Cl)cc5)c4)cc3cc21 (stereo not drawn) [Example 14, N-(2-chloro-6-(4-chlorophenoxy)pyridin-4-yl)-8,8-difluoro-5-(methylsulfonyl)-5,6,7,8-tetrahydronaphtho[2,3-b]thiophene-2-carboxamide]
14 | 0.0038 µM | 0.0024 µM | 0.0062 µM | CS(=O)(=O)C1CCOc2cc3sc(C(=O)Nc4cc(Cl)nc(Oc5ccc(Cl)c(Cl)c5)c4)cc3cc21 (stereo not drawn) [Example 24, N-(2-chloro-6-(3,4-dichlorophenoxy)pyridin-4-yl)-4-(methylsulfonyl)-3,4-dihydro-2H-thieno[3,2-g]chromene-7-carboxamide]
15 | 0.01 µM | 0.0052 µM | 0.006 µM | CC1(S(C)(=O)=O)CCOc2cc3sc(C(=O)Nc4cc(Cl)nc(Oc5ccc(Cl)cc5)c4)cc3cc21 (stereo not drawn) [Example 11, N-(2-chloro-6-(4-chlorophenoxy)pyridin-4-yl)-4-methyl-4-(methylsulfonyl)-3,4-dihydro-2H-thieno[3,2-g]chromene-7-carboxamide]
